{"source": "patent US20190010380A1", "about": "“METHOD FOR CONTROLLING BACTERIA IN FORMATIONS USING MOLYBDATE” (priority 2017, published 2019)", "key": {"[1]": {"tested_on": "SRB", "experiment": "Hydrogen sulfide inhibition in mock-produced water spiked with SRB (Draeger tubes)", "type": "cell-based, sulfate-reducing bacteria (SRB)", "conditions": "for Total H2S: mock-produced water", "experimental": "(§1) Hydrogen sulfide inhibition was tested in mock-produced water approximating water used in hydraulic fracturing operations and was made to a total dissolved solids concentration of 3% with a mixture of instant ocean and NaCl salts. The water was supplemented with nutrients and sulfate to allow SRB to metabolize and create H2S. The water was spiked with SRB and then treated with the various treatment conditions noted below in Table 3 and sealed. Treatment conditions were: Control: No biocide or nitrate.\n(§2) 250 ppm 12.3 Glut/Quat Biocide: a mixture of glutaraldehyde and a quarternary ammonia compound was prepared NRB Program: (480 ppm Ca(NO3)2 with 1 ppm live NRB culture. 20 ppm, 40 ppm, 50 ppm, 60 ppm, 80 ppm, 100 ppm, 120 ppm, 150 ppm, and 200 ppm molybdate concentration-.\n(§3) H2S was measured at intervals using H2S detecting Draeger tubes. Dissolved H2S was released into the gas phase with the addition of hydrochloric acid so that H2S could be measured with the Draeger tubes to get a complete reading of all H2S produced during the course of the example."}, "[2]": {"tested_on": "SRB", "experiment": "Hydrogen sulfide inhibition in actual produced water from the Eagle Ford shale diluted to 3%, spiked with SRB", "type": "cell-based, sulfate-reducing bacteria (SRB)", "experimental": "as §1, §2, §3\nSamples were prepared in accordance with Example 1, except that actual produced water sourced from the Eagle Ford shale that was diluted to 3% using deionized water was used in the samples."}}, "note": "Where “and” joins values, the source holds several entries; their conditions need not be identical. Identical values can stand only once.", "data": [{"smiles": "[O]=[Mo](=[O])([O-])[O-]", "note": "[MoO4, molybdate]", "values": [{"measurement": "Comparison with Glut/Quat biocide and NRB treatment", "setting": "[1]; mock produced water, concentrations of 150 ppm and above", "result": "competitive with other proven treatments"}, {"measurement": "Effect on H2S formation", "setting": "[1]; mock produced water, molybdate alone, even at lower concentrations", "result": "caused a reduction in H2S formation"}, {"measurement": "Total H2S", "setting": "[1]; 20 ppm MoO4", "result": 1974, "unit": "ppm"}, {"measurement": "Total H2S", "setting": "[1]; 40 ppm MoO4", "result": 1066, "unit": "ppm"}, {"measurement": "Total H2S", "setting": "[1]; 50 ppm MoO4", "result": "2262 ppm and 1536 ppm"}, {"measurement": "Total H2S", "setting": "[1]; 60 ppm MoO4", "result": 1846, "unit": "ppm"}, {"measurement": "Total H2S", "setting": "[1]; 80 ppm MoO4", "result": 1866, "unit": "ppm"}, {"measurement": "Total H2S", "setting": "[1]; 100 ppm MoO4", "result": 738, "unit": "ppm"}, {"measurement": "Total H2S", "setting": "[1]; 120 ppm MoO4", "result": 890, "unit": "ppm"}, {"measurement": "Total H2S", "setting": "[1]; 150 ppm MoO4", "result": 176, "unit": "ppm"}, {"measurement": "Total H2S", "setting": "[1]; 200 ppm MoO4", "result": 40, "unit": "ppm"}, {"measurement": "Total H2S", "setting": "[2]; 20 ppm MoO4", "result": 3188, "unit": "ppm"}, {"measurement": "Total H2S", "setting": "[2]; 50 ppm MoO4", "result": 234, "unit": "ppm"}, {"measurement": "Total H2S", "setting": "[2]; 80 ppm MoO4", "result": 172, "unit": "ppm"}, {"measurement": "Total H2S", "setting": "[2]; 100 ppm MoO4", "result": 107, "unit": "ppm"}, {"measurement": "Total H2S", "setting": "[2]; 150 ppm MoO4", "result": 160, "unit": "ppm"}, {"measurement": "Total H2S", "setting": "[2]; 200 ppm MoO4", "result": 110, "unit": "ppm"}, {"measurement": "Comparison with Glut/Quat biocide and NRB treatment", "setting": "[2]; concentrations of 50 ppm and above", "result": "competitive with other proven treatments"}, {"measurement": "Effect on H2S formation", "setting": "[2]; molybdate alone, even at lower concentrations", "result": "caused a strong reduction in H2S formation"}]}]}
